According to patent US10829487B2, “Benzylamino substituted pyridopyrimidinones and derivatives as SOS1 inhibitors” (Boehringer Ingelheim International GmbH, priority 2017, dated 2020):
pIC50: −log10 of the molar value.

What was measured:
[1] = Metabolic (microsomal) stability assay, rat liver microsomes (RLM); type: in vitro ADME; conditions: 1 μM test compound, 37° C.
Protocol: (§1) Metabolic (Microsomal) Stability Assay: The metabolic degradation of the test compound is assayed at 37° C. with pooled liver microsomes (mouse (MLM), rat (RLM) or human (HLM)). The final incubation volume of 74 μL per time point contains TRIS buffer (pH 7.5; 0.1 M), magnesium chloride (6.5 mM), microsomal protein (0.5 mg/mL for mouse/rat, 1 mg/mL for human specimens) and the test compound at a final concentration of 1 μM. Following a short preincubation period at 37° C., the reactions are initiated by addition of 8 μL beta-nicotinamide adenine dinucleotide phosphate, reduced form (NADPH, 10 mM) and terminated by transfering an aliquot into solvent after different time points. Additionally, the NADPH-independent degradation is monitored in incubations without NADPH, terminated at the last time point by addition of acetonitrile. The quenched incubations are pelleted by centrifugation (1811 g, 5 min). An aliquot of the supernatant is assayed by LC-MS/MS for the amount of parent compound. In vitro intrinsic clearance (CLint, in vitro) is calculated from the time course of the disappearance of the test drug during the microsomal incubation. Each plot is fitted to the first-order elimination rate constant as C(t)=C0*exp(−ke*t), where C(t) and C0 are the concentration of unchanged test drug at incubation time t and that at preincubation and ke is the disappearance rate constant of the unchanged drug. Subsequently, CLint, in vitro (μL min^−1·amount protein) values are converted to CLint, in vitro (mL min^−1·kg^−1) for the whole body. CLint, in vitro data are scaled up using physiological parameters. For better across species comparison the predicted clearance is expressed as percent of the liver blood flow [% QH] in the individual species. In general, high stability (corresponding to low % QH) of the compounds across species is desired.

[2] = Metabolic (microsomal) stability assay, mouse liver microsomes (MLM); type: in vitro ADME; conditions: 1 μM test compound, 37° C.
Protocol: as §1

[3] = Metabolic (microsomal) stability assay, human liver microsomes (HLM); type: in vitro ADME; conditions: 1 μM test compound, 37° C.
Protocol: as §1

[4] = biological target: protein-protein interaction between SOS1 and KRAS G12D (Homo sapiens (Human), UniProt Q07889); assay: KRAS::SOS1 AlphaScreen Binding Assay
From the text: KRAS::SOS1 AlphaScreen Binding Assay
Low IC50 values are indicative of high potency of the SOS1 inhibitor compound in this assay setting:
Reagents: • GST-tagged SOS1 (564_1049_GST_TEV_ECO) produced in-house • GST-TEV-SOS1 (564-1049) is purchased from Viva Biotech Ltd. • 6×His-Tev-K-RasG12D(1-169)Avi is purchased from Xtal BioStructures, Inc. (Lot # X129-110) • GDP (Sigma Cat No G7127) • AlphaLISA Glutathione Acceptor Beads (PerkinElmer, Cat No AL109) • AlphaScreen Streptavidin Donor Beads (PerkinElmer Cat No 6760002) • Assay plates: Proxiplate-384 PLUS, white (PerkinElmer, Cat No 6008289)
10 nM (final assay concentration) KRAS G12D, 10 μM (final assay concentration) GDP and 5 nM (final assay concentration) GST-SOS1 are mixed in assay buffer prior to use and kept at room temperature.
AlphaLISA Glutathione Acceptor Beads and AlphaScreen Streptavidin Donor Beads are mixed in assay buffer at a concentration of 10 μg/mL (final assay concentration) each prior to use and kept at room temperature.
Compounds are diluted to a final start concentration of 100 μM and are tested in duplicate. Assay-ready plates (ARPs) are generated using an Access Labcyte Workstation with a Labcyte Echo 550 or 555 accoustic dispenser. For compound a start concentration of 100 μM, 150 nL of compound solution is transferred per well in 11 concentrations in duplicate with serial 1:5 dilutions.
The assay is run using a fully automated robotic system in a darkened room below 100 Lux. 10 μL of KRAS::SOS1 GDP mix is added into columns 1-24 to the 150 nL of compound solution (final dilution in the assay 1:100, final DMSO concentration 1%).
After a 30 minute incubation time 5 μL of bead mix is added into columns 1-23. Plates are kept at room temperature in a darkened incubator. After a further 60 minute incubation, the signal is measured using a PerkinElmer Envision HTS Multilabel Reader using the AlphaScreen specifications from PerkinElmer. Each plate contains the following controls: • diluted DMSO+KRAS::SOS1 GDP mix+bead mix • diluted DMSO+KRAS::SOS1 GDP mix
IC50 values are calculated and analyzed using a 4 parametric logistic model.

[5] = Table 20, KRAS::SOS1 AlphaScreen (SOS1 / KRAS G12D)
[6] = KRAS G12D::SOS1 AlphaScreen, measured without EDTA unless marked with an asterisk

Chain of protein-protein interaction between SOS1 and KRAS G12D (Q07889 564-1049, stated change not applied): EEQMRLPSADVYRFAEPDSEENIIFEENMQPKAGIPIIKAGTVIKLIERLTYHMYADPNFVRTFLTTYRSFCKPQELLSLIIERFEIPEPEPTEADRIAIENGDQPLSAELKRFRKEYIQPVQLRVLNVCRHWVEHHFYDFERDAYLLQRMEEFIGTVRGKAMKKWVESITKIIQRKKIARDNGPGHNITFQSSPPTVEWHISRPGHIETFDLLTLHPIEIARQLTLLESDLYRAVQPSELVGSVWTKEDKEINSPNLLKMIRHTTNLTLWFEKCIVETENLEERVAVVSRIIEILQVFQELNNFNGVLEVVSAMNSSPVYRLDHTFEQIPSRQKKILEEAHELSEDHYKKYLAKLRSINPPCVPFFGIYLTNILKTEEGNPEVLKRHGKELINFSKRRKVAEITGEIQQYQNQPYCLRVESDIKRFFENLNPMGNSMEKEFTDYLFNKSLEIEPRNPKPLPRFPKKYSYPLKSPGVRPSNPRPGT

Compound | RLM [% QH] [1] | MLM [% QH] [2] | HLM [% QH] [3] | pIC50 [4, 5] | pIC50 [4, 6]
Cc1nc(N[C@H](C)c2cccc(C(F)(F)C(C)(C)O)c2F)c2cn(C3(C)CC3)c(=O)c(F)c2n1 [I-88] | <23 % QH | <24 % QH | 24 % QH | 8.70 | –
Cc1nc(N[C@H](C)c2cccc(C(F)F)c2F)c2cn(C3(C)CC(F)(F)C3)c(=O)cc2n1 [I-14] | 56 % QH | 26 % QH | 27 % QH | 7.68 | –
Cc1nc(N[C@H](C)c2cccc(C(F)(F)F)c2)c2cn(C(C)C)c(=O)cc2n1 [I-27] | <23 % QH | 88 % QH | <24 % QH | 7.42 | –
Cc1nc(N[C@H](C)c2cccc(C(F)F)c2F)c2cn(C3(C(F)(F)F)CC3)c(=O)cc2n1 [I-4] | <23 % QH | 46 % QH | <24 % QH | 8.10 | –
Cc1nc(N[C@H](C)c2cccc(C(F)F)c2F)c2cn(C3CC(F)(F)C3)c(=O)cc2n1 [I-13] | 52 % QH | <24 % QH | <24 % QH | 7.96 | –
Cc1nc(N[C@H](C)c2cccc(C(F)F)c2F)c2cn(C3(C(F)F)CC3)c(=O)cc2n1 [I-3] | <23 % QH | 51 % QH | <24 % QH | – | –
Cc1c(=O)n(-c2cnn(C)c2)cc2c(N[C@H](C)c3cccc(C(F)F)c3F)ncnc12 [I-172] | <23 % QH | 53 % QH | <24 % QH | – | 7.85
Cc1nc(N[C@H](C)c2cccc(C(F)(F)C(C)(C)O)c2F)c2cn(C34CC(C3)C4)c(=O)c(F)c2n1 [I-90] | <23 % QH | <24 % QH | <24 % QH | 8.40 | –
C[C@@H](Nc1ncnc2c(F)c(=O)n(C3(C(F)F)CC3)cc12)c1cccc(C(F)F)c1F [I-96] | <23 % QH | 30 % QH | <24 % QH | 8.15 | –
Cc1nc(N[C@H](C)c2cccc(C(C)(F)F)c2F)c2cn(C3(C)CC3)c(=O)c(F)c2n1 [I-86] | <23 % QH | 33 % QH | <24 % QH | 8.22 | –
Cc1nc(N[C@H](C)c2cccc(C(F)F)c2F)c2cn([C@H](C)C(F)(F)F)c(=O)cc2n1 [I-10] | 40 % QH | 41 % QH | <24 % QH | 7.96 | –
Cc1nc(N[C@H](C)c2cccc(C(F)F)c2F)c2cn([C@H]3C[C@@H]3C(F)F)c(=O)c(F)c2n1 [I-83] | 42 % QH | <24 % QH | <24 % QH | 7.82 | –
Cc1nc(N[C@H](C)c2cccc(C(F)F)c2F)c2cn([C@]3(C(F)(F)F)CCOC3)c(=O)c(F)c2n1 [I-85] | <23 % QH | 55 % QH | 24 % QH | 8.05 | –
Cc1nc(N[C@H](C)c2cccc(C(F)F)c2F)c2cn([C@H]3C[C@H](F)C3)c(=O)c(F)c2n1 [I-84] | 29 % QH | <24 % QH | <24 % QH | 8.10 | –
Cc1c(=O)n(C2(C)CC2)cc2c(N[C@H](C)c3cccc(C(F)F)c3F)ncnc12 [I-161] | <23 % QH | 44 % QH | 31 % QH | – | 7.92
C[C@@H](Nc1ncnc2cc(=O)n([C@H]3C[C@H](F)C3)cc12)c1cccc(C(F)F)c1F [I-69] | 40 % QH | <24 % QH | <24 % QH | 8.22 | –
Cc1nc(N[C@H](C)c2cccc(C(C)(F)F)c2)c2cn(C34CC(F)(C3)C4)c(=O)cc2n1 [I-51] | 49 % QH | <24 % QH | <24 % QH | 7.51 | –
Cc1c(=O)n([C@H]2C[C@@H]2C(F)F)cc2c(N[C@H](C)c3cccc(C(F)F)c3F)ncnc12 [I-165] | <23 % QH | 54 % QH | <24 % QH | – | 7.77
Cc1nc(N[C@H](C)c2cccc(C(F)(F)F)c2C)c2cn([C@H]3C[C@](O)(C(F)(F)F)C3)c(=O)cc2n1 [I-47] | 29 % QH | <24 % QH | 24 % QH | 7.48 | –
C[C@@H](Nc1ncnc2cc(=O)n(C34CC(F)(C3)C4)cc12)c1cccc(C(F)F)c1F [I-71] | <23 % QH | <24 % QH | <24 % QH | 8.15 | –
